Measurements taken from patent publication US12551576B2, “Chemiluminescent probes” (The General Hospital Corporation, priority 2020, dated 2026).
“And” between values parts separate entries of the source, which are not always exact repeats. Identical values can stand only once.

Tests used:
[1] = molecular target: Aβ40 aggregates (Homo sapiens, UniProt P05067); test: In vitro fluorescence spectral testing of ADLumin-1 with Aβ40 aggregates; format: binding
[2] = Oxygen sensitivity of ADLumin-1; format: physicochemical
Experimental: Oxygen and ROS sensitivity of ADLumin-1: A 100.0 μL DMSO solution of ADLumin-1 (200.0 μM) was added to a well in a 96-well plate. One group was bubbled with oxygen for 5 seconds at different time points, and the control group was sealed without bubbling. Once the bubbling was over, the plate was subjected to chemiluminescence intensity recording with the IVIS system with the open filter setting (500 nm-840 nm). For ROS tests, A PBS solution (240 μL) was incubated in an Eppendorf tube. To each of above tubes, different ROS (H2O2 30 μL, […] 30 μL, TBHP 30 μL and KO2 30 μL) was added, respectively. Then, a solution of ADLumin-1 in DMSO (30 μL, 250.0 μM) was added. Finally, 100.0 μL of the resulting solution was transferred into a well of 96-well plate, and triplicated samples were prepared. Chemiluminescence images were obtained with an IVIS system under the open filter (500 nm-840 nm).

[3] = molecular target: T1, Aβ plaques (Homo sapiens, UniProt P05067); test: In vitro histological study (brain slice staining); details: 5×FAD mouse brain slice incubated with ADLumin-1
Experimental: In vitro histological study: a fresh brain tissue from a 24-month old APP/PS1 mouse was fixed in 4% formaldehyde for 24 hours and transferred into 30% sucrose at 4° C. until the tissue sunk. Then the tissue was embedded in OCT with gradual cooling over dry ice. […] Then the slice was covered with FluoroShield mounting medium (Abcam) and sealed with nail polish.

[4] = molecular target: T1, Aβ plaques; test: Ex vivo histological study; format: in vivo, 5×FAD mouse; details: mouse sacrificed after two-photon imaging
Experimental: The fresh brain tissue was fixed in 4% formaldehyde for 24 hours and transferred into 30% sucrose at 4° C. until the tissue sunk. Then the tissue was embedded in an OCT block, which was sectioned into 25-μm slice with a cryostat. Then the slice was covered with FluoroShield mounting medium (Abcam).

[5] = molecular target: Aβs (Homo sapiens, UniProt P05067); test: In vivo chemiluminescence imaging with ADLumin-1; parameters: species or system 5×FAD mice
Experimental: The IVIS Spectrum animal imaging system (PerkinElmer) was used for in vivo imaging. Images were acquired with open filter or specific emission filters. […] Chemiluminescent signals from the eyes were recorded at 0 and 45 min after i.v. injection of the probe. Sequence images were captured at 15 min after probe injection with the following parameters: sequence filter from 500 nm to 840 nm with an interval of 20 nm; Exposure time is 30 s, FOV=D. […] To evaluate the imaging results, an ROI was drawn around the brain or the eye region. Student t-test was used to calculate P values.

[6] = molecular target: T2, insulin (Homo sapiens, UniProt P01308); test: Chemiluminescence with misfoldon aggregates in PBS (insulin); format: binding
T2 construct: immunoglobulin G (IgG), proinsulin, insulin, and apolipoprotein A-I (APO)

[7] = tested on: Tau; test: Chemiluminescence with misfoldon aggregates in PBS (Tau); format: binding; details: ADLumin-1 2.5 μM, Tau aggregates 2.5 μM
[8] = molecular target: alpha-synuclein in human serum (Homo sapiens, UniProt P37840); test: Chemiluminescence of synuclein incubated with human serum
[9] = tested on: Immunoglobulin G (IgG); test: Aβ aggregates incubated with IgG
[10] = molecular target: human serum albumin (Homo sapiens, UniProt P02768); test: Aβ aggregates incubated with human serum albumin
[11] = tested on: beta-sheet misfoldons in patient serum; test: Chemiluminescence detection of beta-sheet misfoldons in disease serum; parameters: species or system human
Experimental: Chemiluminescence detection beta-sheet misfoldons in disease serum by ADLumin-1: serum of AD patient contains abundant beta-sheet misfoldons that can be detected by ADLumin-1. ADLumin-1 (2.5 μM) was added to 100 μl non-diluted serum of AD patients, and serum from health control (HC) was used as the control. […] This is remarkable, since this difference is phenomenally large and is very useful for blood quality evaluation.
Misfolded beta-sheets are associated with various diseases, including brain disorders (e.g., neurodegenerative disorders) and periphery diseases, particularly chronic diseases. The patient sera of chronic diseases also contains abundant beta-sheet misfoldons. In this regard, patient sera of multiple sclerosis, diabetes, rheumatoid arthritis and pulmonary fibrosis patients was used in this example.

[12] = molecular target: Aβ plaques and cerebral amyloid angiopathy (CAA) (Homo sapiens, UniProt P05067)
[13] = two-photon imaging, 5×FAD mouse, i.v. 4 mg/kg

Sequence of Aβ plaques and cerebral amyloid angiopathy (CAA) (P05067 672-713 limits assumed): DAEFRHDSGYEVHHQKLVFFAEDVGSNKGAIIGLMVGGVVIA
Sequence of Aβs (P05067 672-713 limits assumed): as above
T2 sequence (P01308 25-54 limits assumed, species assumed): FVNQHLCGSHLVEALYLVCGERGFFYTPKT
T2 sequence (P01308 90-110 limits assumed, species assumed): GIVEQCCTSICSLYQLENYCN
T1 sequence (P05067 672-713 limits assumed): as the sequence (P05067 672-713 limits assumed) above
Sequence of Aβ40 aggregates (P05067 672-711 limits assumed): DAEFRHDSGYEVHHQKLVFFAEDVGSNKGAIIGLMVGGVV
Sequence of human serum albumin (P02768 25-609): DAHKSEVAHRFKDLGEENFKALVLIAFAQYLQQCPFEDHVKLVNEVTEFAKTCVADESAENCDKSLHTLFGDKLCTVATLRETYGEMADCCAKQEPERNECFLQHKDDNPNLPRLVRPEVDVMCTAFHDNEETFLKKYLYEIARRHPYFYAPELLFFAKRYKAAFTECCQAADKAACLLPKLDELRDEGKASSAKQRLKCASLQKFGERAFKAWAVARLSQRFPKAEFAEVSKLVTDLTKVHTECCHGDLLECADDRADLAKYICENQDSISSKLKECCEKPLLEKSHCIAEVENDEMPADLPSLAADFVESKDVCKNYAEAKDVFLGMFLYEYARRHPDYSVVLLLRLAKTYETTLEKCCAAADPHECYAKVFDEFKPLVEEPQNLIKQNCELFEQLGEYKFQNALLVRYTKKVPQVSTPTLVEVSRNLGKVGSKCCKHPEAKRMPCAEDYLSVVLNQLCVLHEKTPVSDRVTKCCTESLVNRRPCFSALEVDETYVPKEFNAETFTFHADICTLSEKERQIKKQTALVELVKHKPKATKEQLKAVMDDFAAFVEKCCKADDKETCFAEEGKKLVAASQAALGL

Structure (SMILES): Cc1nc2c[nH]c(/C=C/C=C/c3ccc(N(C)C)cc3)cn-2c1=O [ADLumin-1, 6-((1E,3E)-4-(4-(dimethylamino)phenyl)buta-1,3-dien-1-yl)-2-methylimidazo[1,2-a]pyrazin-3(7H)-one]
- fluorescence intensity increasing upon mixing with Aβs [1]: 100 fold
- shift of fluorescence emission of the probe with Aβs [1]: significant blue-shift
- response time to O2 [2]: within seconds
- luminescence increase after stirring ([2]; ADLumin-1 DMSO solution): 3.4 fold
- chemiluminescence intensity increase after O2 bubbling ([2]; DMSO solution, after first 5 seconds bubbling): 27 fold
- signal to noise ratio (SNR) of plaques [3]: 2.93
- brightness of plaques in brain slides [4]: considerably bright
- chemiluminescence signal 5×FAD vs age-matched wild-type mice ([5]; 5-month-old mice, summary statement): 1.80 fold
- brain chemiluminescence signal difference 5×FAD vs WT ([5]; 640 nm filter): 1.7 fold
- brain chemiluminescence signal difference 5×FAD vs WT ([5]; 15 minutes after i.v. injection, open filter): 1.7 fold
- brain chemiluminescence signal difference 5×FAD vs WT ([5]; 30 minutes after i.v. injection, open filter): 1.8 fold
- chemiluminescence signals from eyes 5×FAD vs WT ([5]; mouse, in vivo): 1.6 fold
- chemiluminescence signals from noses 5×FAD vs WT ([5]; mouse, in vivo): 1.7 fold
- largest chemiluminescence difference with aggregates ([6]; ADLumin-1 2.5 μM, insulin aggregates 2.5 μM, PBS): 10.8 fold
- signal decay T½ ([6]; with insulin aggregates): > 1 h
- largest chemiluminescence difference with aggregates [7]: 7.02 fold
- chemiluminescence difference vs control group [8]: 4.30 fold
- chemiluminescence intensity IgG/Aβ group vs IgG group ([9]; incubation 30 minutes): 1.81 fold
- chemiluminescence intensity IgG/Aβ group vs IgG group ([9]; incubation 60 minutes): 1.71 fold
- chemiluminescence intensity IgG/Aβ group vs IgG group ([9]; incubation 120 minutes): 2.55 fold
- difference between Aβ/albumin and albumin only group [10]: no significant differences
- chemiluminescence signal AD serum vs HC serum ([11]; ADLumin-1 2.5 μM, 100 μl non-diluted serum): > 50 fold and 52.2 fold
- chemiluminescence signal disease serum vs HC control ([11]; diabetes serum): 44.7 fold
- chemiluminescence signal disease serum vs HC control ([11]; multiple sclerosis serum): 34.9 fold
- chemiluminescence signal disease serum vs HC control ([11]; pulmonary fibrosis serum): 16.6 fold
- chemiluminescence signal disease serum vs HC control ([11]; rheumatoid arthritis serum): 29.3 fold
- SNR of CAAs [12, 13]: ~26.0
- SNR of plaques [12, 13]: about 17.0
- time to peak intensity in CAA ([12]; two-photon time-course imaging): ≤ 1 min
- time to peak intensity in plaques ([12]; two-photon time-course imaging): 5 min
